From US9422292B2, “Bromodomain inhibitors and uses thereof” (Constellation Pharmaceuticals, Inc., priority 2011, dated 2016)

Experiments:
[1] = test system: MYC mRNA in MV4:11 (AML) cells; test: cMyc RNA quantification assay (QuantiGene) in MV4:11 cells; format: cell-based; conditions: Homo sapiens, 4 h, QuantiGene 2.0
Protocol: B. cMyc RNA Quantification Assay (QuantiGene® Assay):
MV4:11 (AML) cells were seeded in a 96-well plate and incubated in the presence of various concentrations of compounds for 4 h. Relative mRNA levels were quantitated by using QuantiGene 2.0 assay (Affymetrix) according to the manufacturer's recommendation. Signals were detected by using an Envision plate reader (Perkin-Elmer). Biological duplicates were averaged and normalized to vehicle (DMSO) control to calculate percent MYC mRNA levels.

BRD4 (BD1) = biological target: T1, BRD4 (BD1) (Homo sapiens, UniProt O60885); test: BRD4 AlphaLisa binding assay; conditions: BRD4 (BD1) 30 nM, biotinylated H4-tetraacetyl peptide 200 nM; read-out: BRD4 AlphaLisa
T1 construct: His; made in house
Protocol: A. IC50 Measurements for Inhibitors Using BRD4 AlphaLisa Binding Assay.
Specifically, in a 384 well ProxiPlate BRD4 (BD1) (30 nM final) was combined with peptide (200 nM final) in 40 mM HEPES (pH 7.0), 40 mM NaCl, 1 mM DTT, 0.01% (w/v) BSA, and 0.008% (w/v) Brij-35 either in the presence of DMSO (final 1.2% DMSO) or compound dilution series in DMSO. After 20 minute incubation at room temperature Alpha streptavidin donor beads and AlphaLisa anti-Flag acceptor beads were added to a final concentration of 10 ug/mL each. After three hours equilibration plates were read on an Envision instrument and IC50s calculated using a four parameter non-linear curve fit.

[2] = test system: IL-6 secretion in THP-1 cells; test: Cell-based IL-6 quantification assay (ELISA, Mesoscale) in LPS-treated THP-1 cells; conditions: Homo sapiens, LPS 4 μg/mL, 16 h, ELISA value/CellTiter-Glo ratio
Protocol: C. Cell-Based IL-6 Quantification Assay (ELISA, Mesoscale Assay):
100,000 THP-1 cells were seeded in RPMI1640-10% FBS in 96-well plates. LPS (E. Coli Invitrogen) in RPMI−10% FBS at a final concentration of 4 μg/mL was added to the wells and the cells are then incubated in the presence of various concentrations of compounds for 16 h. Plates are spun ([…], 5 min), an aliquot of 25 uL supernatant is transferred in to an ELISA plate (Mesoscale technology, MSD) and the detection of IL-6 is performed using manufacturer's instructions. The amount of cells in each well is assessed using CellTiter-Glo® (Promega). The ratio of ELISA value/CellTiter-Glo value is used to calculate the percent of inhibition of IL-6 secretion.

Row | SMILES | IC50 [1] | IC50 (BRD4 (BD1)) | IC50 [2]
1 | Cc1nnc2n1-c1ccc(-c3cnn(C)n3)cc1N(c1ccc(S(C)(=O)=O)cc1)C[C@@H]2C [Compound 72, (R)-4H-[1,2,4]Triazolo[4,3-a][1,5]benzodiazepine, 5,6-dihydro-1,4-dimethyl-8-(2-methyl-2H-1,2,3-triazole-4-yl)-6-(4-methylsulfonyl-phenyl)] | 1 to 10 µM | 0.1 to 1 µM | > 1 µM
2 | Cc1nnc2n1-c1ccc(-c3cnn(C)c3)cc1N(c1ccc(C#N)cc1)C[C@H]2C [Compound 44, (R)-4H-[1,2,4]triazolo[4,3-a][1,5]benzodiazepine, 5,6-dihydro-1,4-dimethyl-8-(1-methyl-1H-pyrazol-4-yl)-6-(4-cyano-phenyl)] | < 0.1 µM | < 0.1 µM | < 0.1 µM
3 | Cc1nnc2n1-c1ccc(Br)cc1N(c1ccc(Cl)cc1)C[C@@H]2C [Compound 37, (S)-4H-[1,2,4]triazolo[4,3-a][1,5]benzodiazepine, 5,6-dihydro-1,4-dimethyl-8-bromo-6-(4-chloro-phenyl)] | 1 to 10 µM | 1 to 10 µM | > 1 µM
4 | Cc1nnc2n1-c1ccc(-c3cnc(N)nc3)cc1N(c1ccc(Cl)cc1)CC2C (stereo not drawn) [Compound 25] | < 0.1 µM | < 0.1 µM | 0.1 to 1 µM
5 | Cc1nnc2n1-c1ccc(-c3ccc(N)nc3)cc1N(c1ccc(C#N)cc1)CC2 [Compound 16, 4H-[1,2,4]triazolo[4,3-a][1,5]benzodiazepine, 5,6-dihydro-1-methyl-8-(6-aminopyridin-3-yl)-6-(4-cyano-phenyl)] | 0.1 to 1 µM | 0.1 to 1 µM | 0.1 to 1 µM
6 | Cc1nnc2n1-c1ccc(-c3cnc(N)nc3)cc1N(c1ccc(Cl)cc1)C[C@H]2C [Compound 39, (R)-4H-[1,2,4]triazolo[4,3-a][1,5]benzodiazepine,5,6-dihydro-1,4-dimethyl-8-(2-aminopyrimidin-5-yl)-6-(4-chloro-phenyl)] | < 0.1 µM | < 0.1 µM | < 0.1 µM
7 | Cc1nnc2n1-c1ccc(-c3ccc(N)nc3)cc1N(c1ccc(C(N)=O)cc1)CC2C (stereo in doubt) [Compound 70, (S)-4-(8-(6-aminopyridin-3-yl)-1,4-dimethyl-4H-benzo[b][1,2,4]triazolo[4,3-d][1,4]diazepin-6(5H)-yl)benzamide] | 1 to 10 µM | < 0.1 µM | 1 to 10 µM
8 | Cc1nnc2n1-c1ccc(-c3ncccn3)cc1N(c1ccc(Cl)cc1)CC2 [Compound 21, 6-(4-chlorophenyl)-1-methyl-8-(pyrimidin-2-yl)-5,6-dihydro-4H-benzo[b][1,2,4]triazolo[4,3-d][1,4]diazepine] | 1 to 10 µM | 0.1 to 1 µM | 0.1 to 1 µM
9 | Cc1c(-c2ccc3c(c2)N(c2ccc(Cl)cc2)C[C@@H](C)c2nnc(C)n2-3)cnn1C [Compound 59, (R)-6-(4-chlorophenyl)-8-(1,5-dimethyl-1H-pyrazol-4-yl)-1,4-dimethyl-5,6-dihydro-4H-benzo[b][1,2,4]triazolo[4,3-d][1,4]diazepine] | < 0.1 µM | < 0.1 µM | < 0.1 µM
10 | Cc1nnc2n1-c1ccc(-c3cnn(CC(N)=O)c3)cc1N(c1ccc(C#N)cc1)C[C@H]2C [Compound 81, (R)-2-(4-(6-(4-cyanophenyl)-1,4-dimethyl-5,6-dihydro-4H-benzo[b][1,2,4]triazolo[4,3-d][1,4]diazepin-8-yl)-1H-pyrazol-1-yl)acetamide] | 1 to 10 µM | < 0.1 µM | > 1 µM
11 | Cc1nnc2n1-c1c(F)cccc1N(c1ccc(Cl)cc1)CC2 [Compound 17, 6-(4-chlorophenyl)−10-fluoro-1-methyl-5,6-dihydro-4H-benzo[b][1,2,4]triazolo[4,3-d][1,4]diazepine] | 1 to 10 µM | 1 to 10 µM | > 1 µM
12 | Cc1nnc2n1-c1ccc(-c3ccc(=O)[nH]c3)cc1N(c1ccc(C#N)cc1)C[C@H]2C [Compound 68, (R)-4-(1,4-dimethyl-8-(6-oxo-1,6-dihydropyridin-3-yl)-4H-benzo[b][1,2,4]triazolo[4,3-d][1,4]diazepin-6(5H)-yl)benzonitrile] | 1 to 10 µM | < 0.1 µM | 1 to 10 µM
13 | Cc1nnc2n1-c1ccc(-c3ccc(=O)[nH]c3)cc1N(c1ccc(Cl)cc1)C[C@H]2C [Compound 61, (R)-5-(6-(4-chlorophenyl)-1,4-dimethyl-5,6-dihydro-4H-benzo[b][1,2,4]triazolo[4,3-d][1,4]diazepin-8-yl)pyridin-2(1H)-one] | < 0.1 µM | < 0.1 µM | < 0.1 µM
14 | Cc1[nH]c(=O)ccc1-c1ccc2c(c1)N(c1ccc(Cl)cc1)C[C@@H](C)c1nnc(C)n1-2 [Compound 85, (R)-5-(6-(4-chlorophenyl)-1,4-dimethyl-5,6-dihydro-4H-benzo[b][1,2,4]triazolo[4,3-d][1,4]diazepin-8-yl)-6-methylpyridin-2(1H)-one] | 0.1 to 1 µM | 0.1 to 1 µM | > 1 µM

Second part, the compound after the results:

Row | IC50 [1] | IC50 (BRD4 (BD1)) | IC50 [2] | SMILES
15 | 1 to 10 µM | 0.1 to 1 µM | > 1 µM | Cc1nnc2n1-c1ccc(-c3cnc(N)cn3)cc1N(c1ccc(C#N)cc1)C[C@@H]2C [Compound 63]
16 | 1 to 10 µM | < 0.1 µM | > 1 µM | Cc1nnc2n1-c1ccc(-c3ncc(C(=O)O)cn3)cc1N(c1ccc(Cl)cc1)CC2 [Compound 24, 4H-[1,2,4]triazolo[4,3-a][1,5]benzodiazepine, 5,6-dihydro-1-methyl-8-(5-(carboxy)pyrimidin-2-yl)-6-(4-chloro-phenyl)]
17 | 1 to 10 µM | 0.1 to 1 µM | 0.1 to 1 µM | Cc1nnc2n1-c1ccc(S(C)(=O)=O)cc1N(c1ccc(Cl)cc1)C[C@H]2C [Compound 60, 4H-[1,2,4]Triazolo[4,3-a][1,5]benzodiazepine,5,6-dihydro-(4R)-1,4-dimethyl-8-methylsulfonyl-6-(4-chloro-phenyl)]
18 | 0.1 to 1 µM | 0.1 to 1 µM | 0.1 to 1 µM | Cc1nnc2n1-c1ccc(C(=O)NCCO)cc1N(c1ccc(Cl)cc1)C[C@H]2C [Compound 47, 4-R-4H-[1,2,4]triazolo[4,3-a][1,5]benzodiazepine,5,6-dihydro-1,4-dimethyl-8-(2-hydroxyethylcarbamoyl)-6-(4-chloro-phenyl)]
19 | 0.1 to 1 µM | < 0.1 µM | < 0.1 µM | Cc1nnc2n1-c1ccc(-c3ccc(N)nc3)cc1N(c1ccc(C(F)(F)F)cc1)CC2 [Compound 19, 4H-[1,2,4]triazolo[4,3-a][1,5]benzodiazepine,5,6-dihydro-1-methyl-8-(6-amino-pyridin-3-yl)-6-(4-trifluoromethyl-phenyl)]
20 | < 0.1 µM | < 0.1 µM | 0.1 to 1 µM | Cc1nnc2n1-c1ccc(C(N)=O)cc1N(c1ccc(Cl)cc1)C[C@H]2C [Compound 41, 4-R-4H-[1,2,4]Triazolo[4,3-a][1,5]benzodiazepine,5,6-dihydro-1,4-dimethyl-8-carbamoyl-6-(4-chloro-phenyl)]
21 | < 0.1 µM | < 0.1 µM | < 0.1 µM | Cc1nnc2n1-c1ccc(-c3cnn(C)n3)cc1N(c1ccc(Cl)cc1)C[C@H]2C [Compound 48, 4H-[1,2,4]triazolo[4,3-a][1,5]benzodiazepine, 5,6-dihydro-(4R)-1,4-dimethyl-8-(2-methyl-2H-1,2,3-triazole-4-yl)-6-(4-chloro-phenyl)]
22 | 0.1 to 1 µM | < 0.1 µM | 0.1 to 1 µM | Cc1nnc2n1-c1ccc(-c3cnn(C)n3)cc1N(c1ccc(S(C)(=O)=O)cc1)C[C@H]2C [Compound 73, (S)-4H-[1,2,4]Triazolo[4,3-a][1,5]benzodiazepine, 5,6-dihydro-1,4-dimethyl-8-(2-methyl-2H-1,2,3-triazole-4-yl)-6-(4-methylsulfonyl-phenyl)]
23 | 0.1 to 1 µM | < 0.1 µM | < 0.1 µM | Cc1nnc2n1-c1ccc(-c3ccc(N)nc3)cc1N(c1ccc(Cl)cc1)CC2 [Compound 15, 5-(6-(4-chlorophenyl)-1-methyl-5,6-dihydro-4H-benzo[b][1,2,4]triazolo[4,3-d][1,4]diazepin-8-yl)pyridin-2-amine]
24 | 0.1 to 1 µM | < 0.1 µM | < 0.1 µM | Cc1nnc2n1-c1ccc(-c3cnn(C)c3)cc1N(c1ccc(C#N)cn1)C[C@H]2C [Compound 52, (R)-4H-[1,2,4]triazolo[4,3-a][1,5]benzodiazepine,5,6-dihydro-1,4-dimethyl-8-(1-methyl-1H-pyrazol-4-yl)-6-(5-cyanopyridin-2-yl)]
25 | 0.1 to 1 µM | 0.1 to 1 µM | 0.1 to 1 µM | Cc1nnc2n1-c1ccc(Br)cc1N(c1ccc(Cl)cc1)C[C@H]2C [Compound 38, (R)-4H-[1,2,4]triazolo[4,3-a][1,5]benzodiazepine,5,6-dihydro-1,4-dimethyl-8-bromo-6-(4-chloro-phenyl)]
